Converted amounts (≈) assume the structure as drawn.
Columns and labels:
Assay in all cases: MIC testing, broth microdilution in CAMHB
Assay type in all cases: cell-based
[1] = system: Escherichia coli, ATCC BAA-198; details: 18-20 hr, lowest concentration that completely inhibits visible growth; for Compound MICs, Escherichia coli, ATCC BAA-198: 37° C.
Description: (§1) Compounds 1-71 were subsequently tested to determine MICs of the compounds relative to the following five species/strains of bacteria: Staphylococcus aureus, NRS384; Enterococcus faecalis, ATCC 51575; Salmonella typhimurium, CMCC 50115; Escherichia coli, ATCC BAA-198; and Acinetobacter baumannii, ATCC 17978. MIC testing of compounds was conducted according to the following protocol.
(§2) For each strain to be tested, made fresh streaks onto CAMHA from −80° C. glycerol stocks.
(§3) • CAMHB: Dissolved 22 g of the powder per 1 L of purified water. Mixed well. Autoclaved at 121° C. for 10 minutes. Stored at room temperature (RT) for no more than 1 week. • Saline: Dissolved 9 g of the powder per 1 L of purified water. Mixed well. Autoclaved at 121° C. for 30 minutes. Stored at room temperature (RT) for no more than 1 week.
(§4) Prepared the stock solutions of the tested compounds.
(§5) For compounds: • a) Dispensed 20 ul compound to the wells in column 1, and 20 ul DMSO to the wells in column 2 to 12; • b) Diluted the compounds by transferring 10 ul compounds from column 1 to 20 ul DMSO in column 2; mix with pipette. • c) Repeated until column 11 to get 3×serial dilutions. Column 12 was the DMSO control.
(§6) A multichannel pipette was used to deliver 1 μl of the diluted compound into each well of the corresponding daughter plate.
(§7) Scraped 4-8 single colonies from an agar plate into 5 ml saline in a 14 ml Falcon conical tube. Vortexed the tube to suspend the bacteria. Adjusted the turbidity to ˜0.2 (corresponding to 0.5 McFarland) with an Ultrospec 10 Cell density meter.
(§8) The strain suspension was diluted 200-fold in CAMHB medium and dispense into a sterile reservoir. A multichannel pipette was then used to deliver 99 μl of the diluted inocula into each well of the corresponding daughter plate.
(§9) Incubate the daughter plates at 37° C., 85% humidity for 18-20 hr.
(§10) A magnifying mirror device was used for ease of scoring the presence or absence of growth in the wells. 96-well micro-plates were photographed.

[2] = system: Enterococcus faecalis, ATCC 51575; details: 18-20 hr, lowest concentration that completely inhibits visible growth; for Compound MICs, Enterococcus faecalis, ATCC 51575: 37° C.
Description: as §1, §2, §3, §4, §5, §6, §7, §8, §9, §10

[3] = system: Salmonella typhimurium, CMCC 50115; details: 37° C., 18-20 hr, lowest concentration that completely inhibits visible growth
Description: as §1, §2, §3, §4, §5, §6, §7, §8, §9, §10

[4] = system: Acinetobacter baumannii, ATCC 17978; details: 18-20 hr, lowest concentration that completely inhibits visible growth; for Compound MICs, Acinetobacter baumannii, ATCC 17978: 37° C.
Description: as §1, §2, §3, §4, §5, §6, §7, §8, §9, §10

[5] = system: Staphylococcus aureus, NRS384; details: 18-20 hr, lowest concentration that completely inhibits visible growth; for Compound MICs, Staphylococcus aureus, NRS384: 37° C.
Description: as §1, §2, §3, §4, §5, §6, §7, §8, §9, §10

Compound	Compound MICs, Escherichia coli, ATCC BAA-198 [1] [µg/mL]	Compound MICs, Enterococcus faecalis, ATCC 51575 [2] [µg/mL]	Compound MICs, Salmonella typhimurium, CMCC 50115 [3] [µg/mL]	Compound MICs, Acinetobacter baumannii, ATCC 17978 [4] [µg/mL]	Compound MICs, Staphylococcus aureus, NRS384 [5] [µg/mL]	MIC ([1]; Escherichia coli, ATCCBAA198, 37° C., read-out: Compound MICs, Escherichia coli, ATCC BAA-198) [µg/mL]	MIC ([2]; Enterococcus faecalis, ATCC51575, 37° C., read-out: Compound MICs, Enterococcus faecalis, ATCC 51575) [µg/mL]	MIC ([3]; Salmonella enterica, read-out: Compound MICs, Salmonella typhimurium, CMCC 50115) [µg/mL]	MIC ([4]; Acinetobacter baumannii, ATCC17978, 37° C., read-out: Compound MICs, Acinetobacter baumannii, ATCC 17978) [µg/mL]	MIC ([5]; Staphylococcus aureus, NRS384, 37° C., read-out: Compound MICs, Staphylococcus aureus, NRS384) [µg/mL]
N#Cc1ccc(Cn2ccc3c4c(N)nc(N)nc4ccc32)s1 [Compound 57]	7.11	0.03	0.09	7.11	0.09	–	–	–	–	–
Nc1nc(N)c2c(ccc3c2ccn3Cc2ccc(-c3ccccc3)cn2)n1 [Compound 58]	7.11	0.03	0.26	2.37	0.09	–	–	–	–	–
CC(C)c1ccc(Cn2ccc3c4c(N)nc(N)nc4ccc32)nc1 [Compound 59]	21.3	0.03	0.26	7.11	0.26	–	–	–	–	–
Nc1nc(N)c2c(ccc3c2ccn3Cc2csc(C(F)(F)F)n2)n1 [Compound 60]	7.11	0.09	0.79	21.3	0.79	–	–	–	–	–
Nc1nc(N)c2c(ccc3c2ccn3Cc2ccc(-c3ccccn3)cc2)n1 [Compound 61]	7.11	0.03	0.26	7.11	0.09	–	–	–	–	–
C=C(Cn1ccc2c3c(N)nc(N)nc3ccc21)C(=O)OC [Compound 62]	21.3	0.003	0.26	21.3	0.79	–	–	–	–	–
COc1ccnc(Cn2ccc3c4c(N)nc(N)nc4ccc32)c1 [Compound 63]	–	–	–	–	–	21.3 (≈ 66.5 µM)	0.09 (≈ 0.281 µM)	0.26 (≈ 0.812 µM)	21.3 (≈ 66.5 µM)	0.26 (≈ 0.812 µM)
Nc1nc(N)c2ccc(NCc3ccc(F)cc3)cc2n1 [Compound 64]	64	21.3	64	>64	7.11	–	–	–	–	–
COc1ccc(Cn2ccc3c4c(N)nc(N)nc4ccc32)c(Cl)c1 [Compound 65]	7.11	0.01	0.26	7.11	0.09	–	–	–	–	–
COc1cc(Cn2ccc3c4c(N)nc(N)nc4ccc32)cc(OC)c1 [Compound 66]	2.37	0.01	0.26	7.11	0.09	–	–	–	–	–
COc1cccc(Cn2ccc3c4c(N)nc(N)nc4ccc32)n1 [Compound 67]	2.37	0.01	0.26	0.26	0.09	–	–	–	–	–
Nc1nc(N)c2c(ccc3c2ccn3Cc2cccc(Cl)c2Cl)n1 [Compound 68]	2.37	0.01	0.26	2.37	0.03	–	–	–	–	–
